Laboratory results published in patent US12391652B2 (priority 2019, dated 2025).

How the values were obtained:
[1] = tested on: soybean rust fungus (Phakopsora pachyrhizi); test: Test Example 1: curative foliar spray against soybean rust on potted soybean; assay type: in vivo; conditions: for Efficacy (%): 2 ppm foliar spray on soybean (cv; Kurosengoku) 4 days after inoculation, lesion area 7 days after spraying vs untreated group
Method: Each of 5 parts of the Ra1 type crystal form, or the Ra4 type crystal form as comparison control, 35 parts of a mixture of white carbon and ammonium polyoxyethylene alkyl ether sulfate (weight ratio is 1:1) and 60 parts of water were mixed, and the mixture was then finely-ground by a wet grinding method to obtain a formulation. Water was then added to the formulation so as to be 2 ppm as the concentration of the Ra1 type crystal form or the Ra4 type crystal form to obtain dilutions respectively.
Each of plastic pots was filled with soil and thereto soybean (cv; Kurosengoku) seeds were sown and the soybeans were grown in a greenhouse for 15 days. Thereafter, an aqueous suspension of spores of soybean rust fungus (Phakopsora pachyrhizi) was spraying-inoculated. After the inoculation, the soybeans were placed under a dark and wet condition at 23° C. for 1 night and were further cultivated in a greenhouse for 3 days, and the above-mentioned diluted dilutions were sprayed to foliar parts so as to adhere adequately on the leaves of the above-mentioned soybean. After spraying the dilutions, the plants were air-dried and were placed under a dark and wet condition at only night, and after 7 days of the spraying, the lesion area was observed (lesion area in treated group).
Whereas, in the untreated group, the similar procedures to those of the treated group except that the Ra1 type crystal form or the Ra4 type crystal form were not applied, were carried out and the lesion area of soybean rust disease in the untreated group was observed (lesion area in untreated group).
From each of the lesion area in the treated group or the untreated group respectively, the efficacy in the treated group was calculated by the following “Equation 1”. Efficacy (%)=[1−(lesion area in the treated group/lesion area in the untreated group)]×100 [Equation 1]

[2] = tested on: blast fungus (Pyricularia oryzae); assay type: in vivo; conditions: for Efficacy (%): 50 ppm foliar spray on rice (cv; Hinohikari), 8 days outdoor, then 11 days in contact with infected rice plants, lesion area vs untreated group; for Efficacy compared to the Ra4 type crystal form: rice blast, 50 ppm

| Structure (SMILES) | Efficacy (%) [1] [%] | Efficacy compared to the Ra4 type crystal form ([1]; soybean rust, 2 ppm) | Efficacy (%) [2] [%] | Efficacy compared to the Ra4 type crystal form [2] |
| --- | --- | --- | --- | --- |
| CC1CC(C)(C)c2cccc(NC(=O)c3cn(C)nc3C(F)F)c21 (racemic) [Ra1 type crystal form, 3-(difluoromethyl)-1-methyl-N-(1,1,3-trimethyl-2,3-dihydro-1H-inden-4-yl)-1H-pyrazole-4-carboxamide] | 72 | higher efficacy compared to the Ra4 type crystal form | – | – |
| CC1CC(C)(C)c2cccc(NC(=O)c3cn(C)nc3C(F)F)c21 (racemic) [Ra2 type crystal form, 3-(difluoromethyl)-1-methyl-N-(1,1,3-trimethyl-2,3-dihydro-1H-inden-4-yl)-1H-pyrazole-4-carboxamide] | – | – | 85 | higher efficacy compared to the Ra4 type crystal form |
| CC1CC(C)(C)c2cccc(NC(=O)c3cn(C)nc3C(F)F)c21 (racemic) [Ra3 type crystal form, 3-(difluoromethyl)-1-methyl-N-(1,1,3-trimethyl-2,3-dihydro-1H-inden-4-yl)-1H-pyrazole-4-carboxamide] | – | – | 75 | higher efficacy compared to the Ra4 type crystal form |
| CC1CC(C)(C)c2cccc(NC(=O)c3cn(C)nc3C(F)F)c21 (racemic) [Ra4 type crystal form, 3-(difluoromethyl)-1-methyl-N-(1,1,3-trimethyl-2,3-dihydro-1H-inden-4-yl)-1H-pyrazole-4-carboxamide, reference compound] | 54 | – | 50 | – |
